Test results reported in patent US8211945B2, “Carba-sugar amine derivative and glycolipid metabolic disorder treating agent containing the same as active ingredient” (Seikagaku Corporation, priority 2001, dated 2012).
Several values for one entry are separate records, joined by “and”; a condition that tells them apart may be missing. Equal values may be shown once.

Biological target: T1, human mutant β-galactosidase R201C (Homo sapiens, UniProt P16278, R201C)
T1 construct: from tissue
T1 sequence (P16278 29-677 R201C): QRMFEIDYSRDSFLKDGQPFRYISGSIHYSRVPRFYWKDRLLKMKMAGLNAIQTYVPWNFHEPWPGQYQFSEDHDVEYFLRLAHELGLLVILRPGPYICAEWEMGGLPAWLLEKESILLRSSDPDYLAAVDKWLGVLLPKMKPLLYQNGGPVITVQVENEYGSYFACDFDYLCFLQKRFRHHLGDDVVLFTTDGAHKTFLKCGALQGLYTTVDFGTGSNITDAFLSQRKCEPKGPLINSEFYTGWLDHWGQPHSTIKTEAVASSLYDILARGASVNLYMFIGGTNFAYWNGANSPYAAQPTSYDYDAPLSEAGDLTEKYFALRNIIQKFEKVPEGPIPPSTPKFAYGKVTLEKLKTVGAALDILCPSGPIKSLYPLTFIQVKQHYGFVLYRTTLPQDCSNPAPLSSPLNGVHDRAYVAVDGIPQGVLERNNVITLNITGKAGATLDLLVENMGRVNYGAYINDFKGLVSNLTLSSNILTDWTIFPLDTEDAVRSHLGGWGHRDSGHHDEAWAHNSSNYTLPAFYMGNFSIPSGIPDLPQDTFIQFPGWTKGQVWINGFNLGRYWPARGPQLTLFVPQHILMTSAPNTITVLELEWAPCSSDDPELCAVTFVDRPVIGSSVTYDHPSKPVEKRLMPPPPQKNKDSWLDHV
Assay: Tissue migration and recovery of β-galactosidase activity, 1 week oral administration to recombinant mice
Type: in vivo
Settings: for β-galactosidase activity, Test group: mice, 1 mM in drinking water, 1 week
Protocol: One week thereafter, the mice were sacrificed to excise the cerebrum, the cerebellum, the heart, the lungs, the liver, the spleen, the kidney, a muscle (femoral muscle) and plasma. Also, tail tissues were used for the purpose of verifying changes in the β-galactosidase activity in the same individual before and after the administration. Each organ was crushed under ice-cooling using a homogenizer, and then the suspension of crushed cells was centrifuged at 8,000×g for 30 minutes. Thereafter, the supernatant fraction was recovered and used as an enzyme solution. The amount of protein in this enzyme solution was measured by the Bradford method, and the β-galactosidase activity was measured. With regard to the measurement of β-galactosidase activity, the enzyme activity during 30 minutes was measured at 37° C. using 4-methylumbelliferyl-β-D-galactopyranoside as the fluorogenic substrate. […] Three animals were used in each group to calculate the mean value.

CCCCCCCCN[C@@H]1C=C(CO)[C@H](O)C(O)[C@@H]1O (stereo partly drawn) [Substance 18, N-octyl-5a-carba-α-L-arabino-hexo-5(5a)-enopyranosylamine]
β-galactosidase activity, Test group (Cerebellum): 55.4 nmol/mg protein/30 minutes
Improving degree (Cerebellum, test group vs control): 5.3 Times
β-galactosidase activity, Test group (Cerebrum): 50.5 nmol/mg protein/30 minutes
Improving degree (Cerebrum, test group vs control): 6.0 Times
β-galactosidase activity, Test group (Heart): 241.2 nmol/mg protein/30 minutes
Improving degree (Heart, test group vs control): 14.2 Times
β-galactosidase activity, Test group (Kidney): 171.1 nmol/mg protein/30 minutes
Improving degree (Kidney, test group vs control): 6.2 Times
β-galactosidase activity, Test group (Liver): 186.8 nmol/mg protein/30 minutes
Improving degree (Liver, test group vs control): 4.7 Times
β-galactosidase activity, Test group (Lungs): 98.9 nmol/mg protein/30 minutes
Improving degree (Lungs, test group vs control): 12.4 Times
β-galactosidase activity, Test group (Muscle (femoral muscle)): 91.4 nmol/mg protein/30 minutes
Improving degree (Muscle (femoral muscle), test group vs control): 11.3 Times
β-galactosidase activity, Test group (Plasma): 23.0 nmol/mg protein/30 minutes
Improving degree (Plasma, test group vs control): 7.9 Times
β-galactosidase activity, Test group (Spleen): 266.2 nmol/mg protein/30 minutes
Improving degree (Spleen, test group vs control): 17.1 Times
β-galactosidase activity, After feeding (Tail (administered group), after 1 week feeding): 518.8 nmol/mg protein/30 minutes
Improving degree (Tail (administered group), after vs before feeding, same individual): ~8 Times and 6.7 Times
β-galactosidase activity improved in average in the test group (average of organs, test group vs control): 9.1 times
level of the activity obtained in the cerebrum and the cerebellum (cerebrum and cerebellum, test group): about 50 nmol/mg protein/30 minutes
